# Test results from patent US20200172966A1 (YAMAGUCHI UNIVERSITY, priority 2015, published 2020).
# Assay: incidence of side effect (hematologic toxicity) by single nucleotide polymorphism genotype in Japanese patients with colon cancer who had received irinotecan
# Assay type: in vivo, human
# Experimental: By using TaqMan SNP Assays Human (manufactured by Applied Biosystems, Inc.) and LightCycler (R) 480 Probe Master (manufactured by Roche Diagnostics, Inc.), Universal ProbeLibrary (manufactured by Roche Diagnostics, Inc.), and LightCycler 480 System II (manufactured by Roche Diagnostics, Inc.), 10 ng of genomic DNA was subjected to genotyping. After incubation at 95° C. for 10 min, the sample was subjected to PCR amplification with 55 cycles for rs1980576, rs2272761, and rs9425343, 45 cycles for rs12577167, rs7265854, and rs1135640, or 40 cycles for rs1547 (1 cycle consisted of 92° C. for 15 sec and 60° C. for 60 sec). The fluorescence emitted from the PCR products were measured.
# The “Odds ratio” in Table 3 refers to an odds ratio indicating the occurrence of a side effect as calculated using a Fisher's exact test on a single nucleotide polymorphism being homozygous for a wild-type or homozygous for a variant type.
# The term (P value/C.-A.) in Table 4 is the same as in Table 2. […] The term “Odds ratio” in Table 5 is the same as in Table 3.
# [1] = N = 67, homozygous UGT1A1*28, homozygous *6, compound heterozygous excluded (Table 2), ACOX1 rs1135640 C/C
# [2] = N = 67, homozygous UGT1A1*28, homozygous *6, compound heterozygous excluded (Table 2), ACOX1 rs1135640 C/G
# [3] = N = 67, homozygous UGT1A1*28, homozygous *6, compound heterozygous excluded (Table 2), ACOX1 rs1135640 G/G
# [4] = N = 67, homozygous UGT1A1*28, homozygous *6, compound heterozygous excluded (Table 3), ACOX1 rs1135640 G/G
# [5] = N = 67, homozygous UGT1A1*28, homozygous *6, compound heterozygous excluded, ACOX1 rs1135640 C/C, C/G
# [6] = N = 67, homozygous UGT1A1*28, homozygous *6, compound heterozygous excluded, APCDD1L rs1980576 A/A
# [7] = N = 67, homozygous UGT1A1*28, homozygous *6, compound heterozygous excluded, APCDD1L rs1980576 A/A, A/G
# [8] = N = 67, homozygous UGT1A1*28, homozygous *6, compound heterozygous excluded, APCDD1L rs1980576 A/G, G/G
# [9] = N = 67, homozygous UGT1A1*28, homozygous *6, compound heterozygous excluded, APCDD1L rs1980576 G/G
# [10] = N = 67, homozygous UGT1A1*28, homozygous *6, compound heterozygous excluded, APCDD1L rs7265854 C/C
# [11] = N = 67, homozygous UGT1A1*28, homozygous *6, compound heterozygous excluded, APCDD1L rs7265854 T/T, T/C
# [12] = N = 67, homozygous UGT1A1*28, homozygous *6, compound heterozygous excluded, EDEM3 rs9425343 T/G, G/G
# [13] = N = 67, homozygous UGT1A1*28, homozygous *6, compound heterozygous excluded, EDEM3 rs9425343 T/T
# [14] = N = 67, homozygous UGT1A1*28, homozygous *6, compound heterozygous excluded, R3HCC1 rs2272761 G/A, A/A
# [15] = N = 68, homozygous UGT1A1*28, homozygous *6, compound heterozygous excluded, APCDD1L rs1980576 A/A
# [16] = N = 68, homozygous UGT1A1*28, homozygous *6, compound heterozygous excluded, APCDD1L rs1980576 A/G
# [17] = N = 68, homozygous UGT1A1*28, homozygous *6, compound heterozygous excluded, APCDD1L rs1980576 G/G
# [18] = N = 68, homozygous UGT1A1*28, homozygous *6, compound heterozygous excluded, APCDD1L rs7268854 A/A
# [19] = N = 68, homozygous UGT1A1*28, homozygous *6, compound heterozygous excluded, APCDD1L rs7268854 A/G
# [20] = N = 68, homozygous UGT1A1*28, homozygous *6, compound heterozygous excluded, APCDD1L rs7268854 G/G
# [21] = N = 68, homozygous UGT1A1*28, homozygous *6, compound heterozygous excluded, CSMD2 rs474474 A/A
# [22] = N = 68, homozygous UGT1A1*28, homozygous *6, compound heterozygous excluded, CSMD2 rs474474 A/G
# [23] = N = 68, homozygous UGT1A1*28, homozygous *6, compound heterozygous excluded, CSMD2 rs474474 G/G
# [24] = N = 68, homozygous UGT1A1*28, homozygous *6, compound heterozygous excluded, EDEM3 rs9425343 G/G
# [25] = N = 68, homozygous UGT1A1*28, homozygous *6, compound heterozygous excluded, EDEM3 rs9425343 T/G
# [26] = N = 68, homozygous UGT1A1*28, homozygous *6, compound heterozygous excluded, EDEM3 rs9425343 T/T
# [27] = N = 68, homozygous UGT1A1*28, homozygous *6, compound heterozygous excluded, GATA2 rs2335052 A/A
# [28] = N = 68, homozygous UGT1A1*28, homozygous *6, compound heterozygous excluded, GATA2 rs2335052 G/A
# [29] = N = 68, homozygous UGT1A1*28, homozygous *6, compound heterozygous excluded, GATA2 rs2335052 G/G
# [30] = N = 68, homozygous UGT1A1*28, homozygous *6, compound heterozygous excluded, MKKS rs1547 C/C
# [31] = N = 68, homozygous UGT1A1*28, homozygous *6, compound heterozygous excluded, MKKS rs1547 C/T
# [32] = N = 68, homozygous UGT1A1*28, homozygous *6, compound heterozygous excluded, MKKS rs1547 T/T
# [33] = N = 68, homozygous UGT1A1*28, homozygous *6, compound heterozygous excluded, OR5112 rs12577167 A/A
# [34] = N = 68, homozygous UGT1A1*28, homozygous *6, compound heterozygous excluded, OR5112 rs12577167 A/G
# [35] = N = 68, homozygous UGT1A1*28, homozygous *6, compound heterozygous excluded, OR5112 rs12577167 G/G
# [36] = N = 68, homozygous UGT1A1*28, homozygous *6, compound heterozygous excluded, R3HCC1 rs2272761 A/A
# [37] = N = 68, homozygous UGT1A1*28, homozygous *6, compound heterozygous excluded, R3HCC1 rs2272761 G/A
# [38] = N = 68, homozygous UGT1A1*28, homozygous *6, compound heterozygous excluded, R3HCC1 rs2272761 G/G
smiles,measurement,setting,value
"CCc1c2c(nc3ccc(OC(=O)N4CCC(N5CCCCC5)CC4)cc13)-c1cc3c(c(=O)n1C2)COC(=O)[C@]3(O)CC [irinotecan, 1,4′-Bipiperidine-1′-carboxylic acid (S)-4,11-diethyl-3,4,12,14-tetrahydro-4-hydroxy-3,14-dioxo-1H-pyrano[3′,4′:6,7]indolizino[1,2-b]quinolin-9-yl ester]",irinotecan side effect observed,68 cases considered to have a low risk of a side effect in view of the UGT1A gene polymorphisms,42.6%
same,Toxicity No,[1],3
same,Toxicity Yes,[1],6
same,Toxicity No,[2],14
same,Toxicity Yes,[2],15
same,Toxicity No,[3],21
same,Toxicity Yes,[3],8
same,Toxicity No,[4],21
same,Toxicity Yes,[4],8
same,Toxicity No,[5],17
same,Toxicity Yes,[5],21
same,Toxicity No,[6],16
same,Toxicity Yes,[6],5
same,Toxicity No,[7],35
same,Toxicity Yes,[7],21
same,Toxicity No,[8],22
same,Toxicity Yes,[8],24
same,Toxicity No,[9],3
same,Toxicity Yes,[9],8
same,Toxicity No,[10],8
same,Toxicity Yes,[10],1
same,Toxicity No,[11],30
same,Toxicity Yes,[11],28
same,Toxicity No,[12],31
same,Toxicity Yes,[12],17
same,Toxicity No,[13],7
same,Toxicity Yes,[13],12
same,Toxicity No,[14],32
same,Toxicity Yes,[14],29
same,Toxicity No,"N = 67, homozygous UGT1A1*28, homozygous *6, compound heterozygous excluded, R3HCC1 rs2272761 G/G",6
same,Toxicity No,[15],16
same,Toxicity Yes,[15],5
same,Toxicity No,[16],20
same,Toxicity Yes,[16],16
same,Toxicity No,[17],3
same,Toxicity Yes,[17],8
same,Toxicity No,[18],13
same,Toxicity Yes,[18],13
same,Toxicity No,[19],18
same,Toxicity Yes,[19],15
same,Toxicity No,[20],8
same,Toxicity Yes,[20],1
same,Toxicity No,[21],16
same,Toxicity Yes,[21],17
same,Toxicity No,[22],18
same,Toxicity Yes,[22],8
same,Toxicity No,[23],5
same,Toxicity Yes,[23],4
same,Toxicity No,[24],10
same,Toxicity Yes,[24],3
same,Toxicity No,[25],21
same,Toxicity Yes,[25],14
same,Toxicity No,[26],8
same,Toxicity Yes,[26],12
same,Toxicity No,[27],5
same,Toxicity Yes,[27],3
same,Toxicity No,[28],20
same,Toxicity Yes,[28],10
same,Toxicity No,[29],14
same,Toxicity Yes,[29],16
same,Toxicity No,[30],20
same,Toxicity Yes,[30],8
same,Toxicity No,[31],16
same,Toxicity Yes,[31],16
same,Toxicity No,[32],3
same,Toxicity Yes,[32],5
same,Toxicity No,[33],19
same,Toxicity Yes,[33],20
same,Toxicity No,[34],14
same,Toxicity Yes,[34],8
same,Toxicity No,[35],6
same,Toxicity Yes,[35],1
same,Toxicity No,[36],22
same,Toxicity Yes,[36],21
same,Toxicity No,[37],11
same,Toxicity Yes,[37],8
same,Toxicity No,[38],6
same,Toxicity Yes,[38],0
